Assay results published in PubChem BioAssay (NCI).
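Exposure lasted 48 hours, with cells grown in 96-well plates and compounds tested at five concentrations. GI50: concentration for 50% inhibition of growth. At the TGI there is no net growth.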

How the values were obtained:
Assay in all cases: growth of human tumour cells (NCI), 48 h
MCF7 breast = test system: MCF7 breast
EKVX NSCLC = test system: EKVX NSCLC
KM12 colon = test system: KM12 colon
COLO 205 colon = test system: COLO 205 colon
SK-OV-3 ovarian = test system: SK-OV-3 ovarian
U251 CNS = test system: U251 CNS
SF-268 CNS = test system: SF-268 CNS
BT-549 breast = test system: BT-549 breast
NCI-H460 lung = test system: NCI-H460 lung
IGROV1 ovarian = test system: IGROV1 ovarian
SNB-75 CNS = test system: SNB-75 CNS
OVCAR-8 ovarian = test system: OVCAR-8 ovarian
TK-10 renal = test system: TK-10 renal
OVCAR-3 ovarian = test system: OVCAR-3 ovarian
NCI-H522 lung = test system: NCI-H522 lung
NCI/ADR-RES ovarian = test system: NCI/ADR-RES ovarian
MDA-MB-231 breast = test system: MDA-MB-231 breast
SN12C renal = test system: SN12C renal
HCC-2998 colon = test system: HCC-2998 colon
HS 578T breast = test system: HS 578T breast
MDA-MB-435 = test system: MDA-MB-435
ACHN renal = test system: ACHN renal
MOLT-4 leukemia = test system: MOLT-4 leukemia
SF-539 CNS = test system: SF-539 CNS
HL-60(TB) leukemia = test system: HL-60(TB) leukemia
UO-31 renal = test system: UO-31 renal
HOP-92 NSCLC = test system: HOP-92 NSCLC
SNB-19 CNS = test system: SNB-19 CNS
SK-MEL-5 melanoma = test system: SK-MEL-5 melanoma
CAKI-1 renal = test system: CAKI-1 renal
786-0 renal = test system: 786-0 renal
A498 renal = test system: A498 renal
RXF 393 renal = test system: RXF 393 renal
NCI-H23 lung = test system: NCI-H23 lung
SK-MEL-2 melanoma = test system: SK-MEL-2 melanoma
LOX IMVI melanoma = test system: LOX IMVI melanoma
CCRF-CEM leukemia = test system: CCRF-CEM leukemia
UACC-257 melanoma = test system: UACC-257 melanoma
K-562 leukemia = test system: K-562 leukemia
M14 melanoma = test system: M14 melanoma
DU-145 prostate = test system: DU-145 prostate
OVCAR-4 ovarian = test system: OVCAR-4 ovarian
SK-MEL-28 melanoma = test system: SK-MEL-28 melanoma
T-47D breast = test system: T-47D breast
OVCAR-5 ovarian = test system: OVCAR-5 ovarian
MDA-N = test system: MDA-N
SW-620 colon = test system: SW-620 colon
HOP-62 NSCLC = test system: HOP-62 NSCLC
SF-295 CNS = test system: SF-295 CNS
MALME-3M melanoma = test system: MALME-3M melanoma
NCI-H226 lung = test system: NCI-H226 lung
HT29 colon = test system: HT29 colon
PC-3 prostate = test system: PC-3 prostate
HCT-116 colon = test system: HCT-116 colon
SR leukemia = test system: SR leukemia
UACC-62 melanoma = test system: UACC-62 melanoma
HCT-15 colon = test system: HCT-15 colon
A549 NSCLC = test system: A549 NSCLC
RPMI-8226 leukemia = test system: RPMI-8226 leukemia

## NS(=O)(=O)c1ccc(/C=C/c2ccc(O)c(O)c2)cc1
MCF7 breast
  TGI: 51.9 µM
EKVX NSCLC
  TGI: 64 µM
KM12 colon
  GI50: 18.2 µM
  TGI: 48.9 µM
COLO 205 colon
  TGI: 53.8 µM
SK-OV-3 ovarian
  TGI: 48.8 µM
U251 CNS
  GI50: 16.3 µM
  TGI: 46.9 µM
SF-268 CNS
  GI50: 18.2 µM
  TGI: 47.3 µM
BT-549 breast
  GI50: 4.13 µM
  TGI: 27.1 µM
NCI-H460 lung
  TGI: > 100 µM
IGROV1 ovarian
  GI50: 4.49 µM
  TGI: 40.1 µM
SNB-75 CNS
  TGI: 58.3 µM
OVCAR-8 ovarian
  GI50: 16.7 µM
  TGI: 56.5 µM
TK-10 renal
  TGI: > 100 µM
OVCAR-3 ovarian
  TGI: > 100 µM
NCI-H522 lung
  GI50: 2.25 µM
  TGI: 4.79 µM
NCI/ADR-RES ovarian
  TGI: 71.7 µM
MDA-MB-231 breast
  TGI: 64.6 µM
SN12C renal
  TGI: 60.9 µM
HCC-2998 colon
  TGI: 41.7 µM
HS 578T breast
  GI50: 25.6 µM
  TGI: 92.8 µM
MDA-MB-435
  GI50: 16.8 µM
  TGI: 51.5 µM
ACHN renal
  GI50: 20.4 µM
  TGI: > 100 µM
MOLT-4 leukemia
  GI50: 12.8 µM
  TGI: 53.7 µM
SF-539 CNS
  GI50: 14.2 µM
  TGI: 40.2 µM
HL-60(TB) leukemia
  GI50: 16.3 µM
  TGI: > 100 µM
UO-31 renal
  TGI: 35 µM
HOP-92 NSCLC
  GI50: 15.8 µM
  TGI: 47.9 µM
SNB-19 CNS
  TGI: > 100 µM
SK-MEL-5 melanoma
  TGI: 29.6 µM
CAKI-1 renal
  GI50: 29.1 µM
  TGI: > 100 µM
786-0 renal
  TGI: > 100 µM
A498 renal
  TGI: > 100 µM
RXF 393 renal
  TGI: > 100 µM
NCI-H23 lung
  GI50: 25.9 µM
  TGI: 79.3 µM
SK-MEL-2 melanoma
  TGI: 62.8 µM
LOX IMVI melanoma
  GI50: 29.9 µM
  TGI: > 100 µM
CCRF-CEM leukemia
  GI50: 4.79 µM
  TGI: > 100 µM
UACC-257 melanoma
  TGI: > 100 µM
K-562 leukemia
  GI50: 35.3 µM
  TGI: > 100 µM
M14 melanoma
  TGI: > 100 µM
DU-145 prostate
  TGI: > 100 µM
OVCAR-4 ovarian
  GI50: 11.6 µM
  TGI: 27.2 µM
SK-MEL-28 melanoma
  TGI: 78.6 µM
T-47D breast
  TGI: 53.1 µM
OVCAR-5 ovarian
  TGI: > 100 µM
MDA-N
  TGI: 65.7 µM
SW-620 colon
  TGI: > 100 µM
HOP-62 NSCLC
  TGI: > 100 µM
SF-295 CNS
  TGI: 74.3 µM
MALME-3M melanoma
  TGI: > 100 µM
NCI-H226 lung
  GI50: 14 µM
  TGI: 60.2 µM
HT29 colon
  GI50: 35.4 µM
  TGI: > 100 µM
PC-3 prostate
  TGI: 83.5 µM
HCT-116 colon
  TGI: > 100 µM
SR leukemia
  GI50: 12.7 µM
  TGI: 51.3 µM
UACC-62 melanoma
  GI50: 23.3 µM
  TGI: 42.2 µM
HCT-15 colon
  GI50: 13.9 µM
  TGI: > 100 µM
A549 NSCLC
  GI50: 22.3 µM
  TGI: > 100 µM
RPMI-8226 leukemia
  GI50: 9.16 µM
  TGI: 73.3 µM

## CCOC(=O)c1ccc(NC(=O)Oc2ccc3c(C)cc(=O)oc3c2)cc1
MCF7 breast
  TGI: 88 µM
EKVX NSCLC
  TGI: > 100 µM
KM12 colon
  TGI: > 100 µM
COLO 205 colon
  TGI: > 100 µM
SK-OV-3 ovarian
  TGI: 94.4 µM
U251 CNS
  TGI: > 100 µM
SF-268 CNS
  TGI: > 100 µM
BT-549 breast
  TGI: 89.5 µM
NCI-H460 lung
  TGI: > 100 µM
IGROV1 ovarian
  TGI: > 100 µM
SNB-75 CNS
  TGI: 98.1 µM
OVCAR-8 ovarian
  TGI: > 100 µM
TK-10 renal
  TGI: > 100 µM
OVCAR-3 ovarian
  TGI: > 100 µM
NCI-H522 lung
  TGI: 66.7 µM
NCI/ADR-RES ovarian
  TGI: > 100 µM
MDA-MB-231 breast
  TGI: 82.8 µM
SN12C renal
  TGI: > 100 µM
HCC-2998 colon
  TGI: 51.1 µM
HS 578T breast
  TGI: 84.1 µM
MDA-MB-435
  TGI: > 100 µM
ACHN renal
  TGI: > 100 µM
MOLT-4 leukemia
  TGI: 58 µM
SF-539 CNS
  TGI: > 100 µM
HL-60(TB) leukemia
  TGI: 62.2 µM
UO-31 renal
  TGI: > 100 µM
HOP-92 NSCLC
  TGI: 54.1 µM
SNB-19 CNS
  TGI: > 100 µM
SK-MEL-5 melanoma
  TGI: 29.1 µM
CAKI-1 renal
  TGI: > 100 µM
786-0 renal
  TGI: > 100 µM
A498 renal
  TGI: > 100 µM
RXF 393 renal
  TGI: > 100 µM
NCI-H23 lung
  TGI: > 100 µM
SK-MEL-2 melanoma
  TGI: 79 µM
LOX IMVI melanoma
  TGI: > 100 µM
CCRF-CEM leukemia
  TGI: 58.4 µM
UACC-257 melanoma
  TGI: > 100 µM
K-562 leukemia
  TGI: 66.7 µM
M14 melanoma
  TGI: > 100 µM
DU-145 prostate
  TGI: > 100 µM
OVCAR-4 ovarian
  TGI: > 100 µM
SK-MEL-28 melanoma
  TGI: > 100 µM
T-47D breast
  TGI: 78 µM
OVCAR-5 ovarian
  TGI: > 100 µM
MDA-N
  TGI: > 100 µM
SW-620 colon
  TGI: > 100 µM
HOP-62 NSCLC
  TGI: 98.6 µM
SF-295 CNS
  TGI: > 100 µM
MALME-3M melanoma
  TGI: > 100 µM
NCI-H226 lung
  TGI: 81.3 µM
HT29 colon
  TGI: > 100 µM
PC-3 prostate
  TGI: > 100 µM
HCT-116 colon
  TGI: 82.9 µM
SR leukemia
  TGI: 54.2 µM
UACC-62 melanoma
  TGI: > 100 µM
HCT-15 colon
  TGI: > 100 µM
A549 NSCLC
  TGI: > 100 µM
RPMI-8226 leukemia
  TGI: 72.9 µM

## Cc1c(O)ccc2c(O)c(NC(=O)c3ccc4c(c3)CCC(C)(C)O4)c(=O)oc12
MCF7 breast
  TGI: > 100 µM
EKVX NSCLC
  TGI: > 100 µM
KM12 colon
  TGI: > 100 µM
COLO 205 colon
  TGI: > 100 µM
SK-OV-3 ovarian
  TGI: > 100 µM
U251 CNS
  TGI: > 100 µM
SF-268 CNS
  TGI: > 100 µM
BT-549 breast
  TGI: > 100 µM
NCI-H460 lung
  TGI: > 100 µM
IGROV1 ovarian
  TGI: > 100 µM
SNB-75 CNS
  TGI: > 100 µM
OVCAR-8 ovarian
  TGI: > 100 µM
TK-10 renal
  TGI: > 100 µM
OVCAR-3 ovarian
  TGI: > 100 µM
NCI-H522 lung
  TGI: > 100 µM
NCI/ADR-RES ovarian
  TGI: > 100 µM
MDA-MB-231 breast
  TGI: > 100 µM
SN12C renal
  TGI: > 100 µM
HCC-2998 colon
  TGI: > 100 µM
HS 578T breast
  TGI: > 100 µM
MDA-MB-435
  TGI: > 100 µM
ACHN renal
  TGI: > 100 µM
MOLT-4 leukemia
  TGI: > 100 µM
SF-539 CNS
  TGI: > 100 µM
HL-60(TB) leukemia
  TGI: > 100 µM
UO-31 renal
  TGI: > 100 µM
HOP-92 NSCLC
  TGI: > 100 µM
SNB-19 CNS
  TGI: > 100 µM
SK-MEL-5 melanoma
  TGI: > 100 µM
CAKI-1 renal
  TGI: > 100 µM
786-0 renal
  TGI: > 100 µM
A498 renal
  TGI: > 100 µM
RXF 393 renal
  TGI: > 100 µM
NCI-H23 lung
  TGI: > 100 µM
SK-MEL-2 melanoma
  TGI: > 100 µM
LOX IMVI melanoma
  TGI: > 100 µM
CCRF-CEM leukemia
  TGI: > 100 µM
UACC-257 melanoma
  TGI: > 100 µM
K-562 leukemia
  TGI: > 100 µM
DU-145 prostate
  TGI: > 100 µM
OVCAR-4 ovarian
  TGI: > 100 µM
SK-MEL-28 melanoma
  TGI: > 100 µM
T-47D breast
  TGI: > 100 µM
OVCAR-5 ovarian
  TGI: > 100 µM
MDA-N
  TGI: > 100 µM
SW-620 colon
  TGI: > 100 µM
HOP-62 NSCLC
  TGI: > 100 µM
SF-295 CNS
  TGI: > 100 µM
MALME-3M melanoma
  TGI: > 100 µM
NCI-H226 lung
  TGI: > 100 µM
HT29 colon
  TGI: > 100 µM
PC-3 prostate
  TGI: > 100 µM
HCT-116 colon
  TGI: > 100 µM
SR leukemia
  TGI: > 100 µM
UACC-62 melanoma
  TGI: > 100 µM
HCT-15 colon
  TGI: > 100 µM
A549 NSCLC
  TGI: > 100 µM
RPMI-8226 leukemia
  TGI: > 100 µM
